# In patent publication US20130122541A1, “MICROORGANISM PRODUCTION OF HIGH-VALUE CHEMICAL PRODUCTS, AND RELATED COMPOSITIONS, METHODS AND SYSTEMS” (The Regents of the University of Colorado, priority 2010, published 2013):
# Read-outs that look alike come from different tables or passages of the source.
# System: E. coli
# Assay: microbe, parasite or virus in culture
# Format: cell-based
# Conditions: for MIC: Escherichia coli, BW25113, read-out: MIC Assay Result (g/L 3-HP), aerobic; for % Increase Over Control: aerobic
# Method: For MIC evaluations, the final results are expressed in chemical agent concentrations determined by analysis of the stock solution by HPLC (i.e., see Subsection IIIb).
# The minimum inhibitory concentration (MIC) was determined aerobically in a 96 well-plate format. […] Media supplements were added according to levels reported in the Supplements Table, where specified. Overnight cultures of strains were grown in triplicate in 5 mL LB (with antibiotic where appropriate). A 1% (v/v) inoculum was introduced into a 5 ml culture of M9 minimal media.
smiles,measurement,setting,value
"O=C(O)CCO [3-HP, 3-hydroxypropionic acid]",MIC,"strain BX_00322.0: BW25113 wild type, pJ61-speFED, M9 + Kan 20 μg/mL",35 g/L
same,MIC,"strain BX_00323.0: BW25113 wild type, pJ61-aroG, M9 + Kan 20 μg/mL",35 g/L
same,MIC,"strain BX_00324.0: BW25113 wild type, pJ61-thrA, M9 + Kan 20 μg/mL",35 g/L
same,MIC,"strain BX_00325.0: BW25113 wild type, pJ61-asd, M9 + Kan 20 μg/mL",35 g/L
same,MIC,"strain BX_00326.0: BW25113 wild type, pJ61-ilvA, M9 + Kan 20 μg/mL",35 g/L
same,MIC,"strain BX_00327.0: BW25113 wild type, pJ61-cysM, M9 + Kan 20 μg/mL",35 g/L
same,MIC,"strain BX_00335.0: BW25113 wild type, pSmart-HC-Amp-prs, M9 + Amp 100 μg/mL",35 g/L
same,MIC,"strain BX_00336.0: BW25113 wild type, pSmart-HC-Amp-nrdAB, M9 + Amp 100 μg/mL",35 g/L
same,MIC,"strain BX_00337.0: BW25113 wild type, pSmart-HC-Amp-nrdEF, M9 + Amp 100 μg/mL",35 g/L
same,MIC,"strain BX_00352.0: BW25113 wild type, pSmart-LC-Kan-metC C1, M9 + Amp 100 μg/mL",35 g/L
same,MIC,"strain BX_00353.0: BW25113 wild type, pSmart-HC-Amp-metC, M9 + Amp 100 μg/mL",45 g/L
same,MIC,"strain BX_00354.0: BW25113 wild type, pSmart-HC-Amp-cynTS, M9 + Amp 100 μg/mL",45 g/L
same,MIC,"strain BX_00356.0: BW25113 wild type, pSmart-HC-Amp-LysA, M9 + Amp 100 μg/mL",30 g/L
same,MIC,"strain BX_00357.0: BW25113 wild type, pKK223-aroH*445, M9 + Amp 100 μg/mL + 1 mM IPTG",30 g/L
same,MIC,"strain BX_00359.0: BW25113 wild type, pKK223-aroH*457, M9 + Amp 100 μg/mL + 1 mM IPTG",35 g/L
same,MIC,"strain BX_00361.0: BW25113 wild type, pACYC177 (Kan only)-cynTS, M9 + Kan 20 μg/mL",35 g/L
same,MIC,"strain BX_00362.0: BW25113 wild type, pACYC177 (Kan only)-aroH, M9 + Kan 20 μg/mL + 1 mM IPTG",30 g/L
same,MIC,"strain BX_00363.0: BW25113 wild type, pACYC177 (kan only)-speB, M9 + Kan 20 μg/mL",35 g/L
same,MIC,"strain BX_00364.0: BW25113 wild type, pACYC177 (Kan only)-metE (Version1) (SS090608_13), M9 + Kan 20 μg/mL + 1 mM IPTG",35 g/L
same,MIC,"strain BX_00365.0: BW25113 wild type, pACYC177 (Kan only)-metC (Version1) (SS090608_17), M9 + Kan 20 μg/mL",35 g/L
same,MIC,"strain BX_00368.0: BW25113 wild type, pBT-3-cynTS, M9 + Cm (20 μg/mL)",30 g/L
same,MIC,"strain BX_00370.0: BW25113 wild type, pBT-3-speB, M9 + Cm (20 μg/mL)",30 g/L
same,% Increase Over Control,strain BX_00301.0 (pSmart-LC-Kan-folA-C1),40%
same,% Increase Over Control,strain BX_00302.0 (pSmart-LC-Kan-folA-ORF),20%
same,% Increase Over Control,strain BX_00304.0 (pSmart-LC-Kan-menA-ORF),40%
same,% Increase Over Control,strain BX_00305.0 (pSmart-LC-Kan-pheA-C1),40%
same,% Increase Over Control,strain BX_00307.0 (pSmart-LC-Kan-tyrA-C1),40%
same,% Increase Over Control,strain BX_00309.0 (pSmart-LC-Kan-cynTS),40%
same,% Increase Over Control,strain BX_00310.0 (pSmart-LC-Kan-glyA),40%
same,% Increase Over Control,strain BX_00312.0 (pSmart-LC-Kan-serA),40%
same,% Increase Over Control,strain BX_00313.0 (pSmart-LC-Kan-folD),20%
same,% Increase Over Control,strain BX_00314.0 (pSmart-LC-Kan-aroE),40%
same,% Increase Over Control,strain BX_00315.0 (pSmart-LC-Kan-aroKB C1),40%
same,% Increase Over Control,strain BX_00317.0 (pSmart-LC-Kan-ilvA operon),40%
same,% Increase Over Control,strain BX_00318.0 (pSmart-LC-Kan-cysM),40%
same,% Increase Over Control,strain BX_00319.0 (pK223-aroH),50%
same,% Increase Over Control,strain BX_00321.0 (pK223-ct-his-thrA),75%
same,% Increase Over Control,strain BX_00322.0 (pJ61-speFED),40%
same,% Increase Over Control,strain BX_00323.0 (pJ61-aroG),40%
same,% Increase Over Control,strain BX_00324.0 (pJ61-thrA),40%
same,% Increase Over Control,strain BX_00325.0 (pJ61-asd),40%
same,% Increase Over Control,strain BX_00326.0 (pJ61-ilvA),40%
same,% Increase Over Control,strain BX_00327.0 (pJ61-cysM),40%
same,% Increase Over Control,strain BX_00334.0 (pSmart-HC-Amp-cadA),60%
same,% Increase Over Control,strain BX_00335.0 (pSmart-HC-Amp-prs),40%
same,% Increase Over Control,strain BX_00336.0 (pSmart-HC-Amp-nrdAB),40%
same,% Increase Over Control,strain BX_00337.0 (pSmart-HC-Amp-nrdEF),40%
same,% Increase Over Control,strain BX_00352.0 (pSmart-LC-Kan-metC C1),40%
same,% Increase Over Control,strain BX_00353.0 (pSmart-HC-Amp-metC),80%
same,% Increase Over Control,strain BX_00354.0 (pSmart-HC-Amp-cynTS),80%
same,% Increase Over Control,strain BX_00356.0 (pSmart-HC-Amp-LysA),20%
same,% Increase Over Control,strain BX_00357.0 (pKK223-aroH*445),50%
same,% Increase Over Control,strain BX_00358.0 (pKK223-aroH*447),75%
same,% Increase Over Control,strain BX_00359.0 (pKK223-aroH*457),75%
same,% Increase Over Control,strain BX_00361.0 (pACYC177 (Kan only)-cynTS),40%
same,% Increase Over Control,strain BX_00362.0 (pACYC177 (Kan only)-aroH),20%
same,% Increase Over Control,strain BX_00363.0 (pACYC177 (kan only)-speB),40%
same,% Increase Over Control,strain BX_00364.0 (pACYC177 (Kan only)-metE),40%
same,% Increase Over Control,strain BX_00365.0 (pACYC177 (Kan only)-metC),40%
same,% Increase Over Control,strain BX_00368.0 (pBT-3-cynTS),20%
same,% Increase Over Control,strain BX_00370.0 (pBT-3-speB),20%
